Data taken from EPA's ToxRefDB 2.

What was measured:
[1] = system: rat; conditions: Subchronic oral toxicity in rodents, sprague dawley, Gavage/Intubation, dose end: 90 day, group: systemic
[2] = system: rat; conditions: Combined chronic toxicity/carcinogenicity, sprague dawley, Oral, Feed, dose end: 24 month, group: systemic
[3] = system: mouse; conditions: Carcinogenicity; cd1; Oral; Feed; dose end: 18 month; group: systemic; systemic / in life observation / body weight / body weight
[4] = system: rat; conditions: Combined chronic toxicity/carcinogenicity, sprague dawley, Oral, Feed, dose end: 104 week, group: systemic
[5] = system: rat; conditions: Subchronic oral toxicity in rodents, sprague-dawley, Gavage/Intubation, dose end: 90 day, group: systemic, systemic / in life observation / body weight / body weight gain + systemic / in life observation / clinical signs / exophthalamus + systemic…
[6] = system: mouse; conditions: Carcinogenicity; cd1; Oral; Feed; dose end: 78 week; group: systemic; systemic / in life observation / body weight / body weight + systemic / in life observation / body weight / body weight gain
[7] = system: dog; conditions: Chronic toxicity, beagle, Oral, Feed, dose end: 52 week, group: systemic
[8] = system: rabbit; conditions: Prenatal developmental toxicity study, new zealand white, Oral, Gavage/Intubation, dose end: 18 GD
[9] = system: rat; conditions: Subchronic oral toxicity in rodents, sprague dawley, Gavage/Intubation, dose end: 13 week, group: systemic, systemic / pathology microscopic / adrenal gland / congestion + systemic / pathology microscopic / brain / congestion + systemic / pathology…
[10] = system: rat; conditions: Subchronic oral toxicity in rodents, fischer, Feed, dose end: 14 week, group: systemic
[11] = system: mouse; conditions: Subchronic oral toxicity in rodents, b6c3f1, Feed, dose end: 14 week, group: systemic
[12] = system: mouse; conditions: Subchronic oral toxicity in rodents, b6c3f1, Gavage/Intubation, dose end: 14 week, group: systemic
[13] = system: rat; conditions: Combined chronic toxicity/carcinogenicity; fischer; Oral; Gavage/Intubation; dose end: 2 year; group: systemic; systemic / in life observation / body weight / body weight gain
[14] = system: mouse; conditions: Carcinogenicity, b6c3f1, Oral, Gavage/Intubation, dose end: 2 year, group: systemic
[15] = system: rat; conditions: Subchronic oral toxicity in rodents, fischer, Gavage/Intubation, dose end: 14 week, group: systemic
[16] = system: rabbit; conditions: Prenatal developmental toxicity study, other, Injection, Intravenous, dose end: 18 GD
[17] = system: mouse; conditions: Prenatal developmental toxicity study, other, Injection, Intraperitoneal, dose end: 13 GD
[18] = system: dog; conditions: Sub-acute repeat dose toxicity; beagle; Injection; Intravenous; dose end: 4 week; group: systemic; systemic / clinical chemistry / alanine aminotransferase (alt/sgpt) / alanine aminotransferase (alt/sgpt) + systemic / clinical chemistry / …
[19] = system: rat; conditions: Prenatal developmental toxicity study, sprague dawley, Oral, Feed, dose end: 15 GD
[20] = system: mouse; conditions: Prenatal developmental toxicity study, cd1, Oral, Water, dose end: 15 GD
[21] = systemic / in life observation / body weight / body weight + systemic / organ weight / liver / absolute + systemic / organ weight / liver / …
[22] = systemic / clinical chemistry / aspartate aminotransferase (ast/sgot) / aspartate aminotransferase (ast/sgot)
[23] = systemic / in life observation / mortality / mortality + systemic / pathology gross / mammary gland / cyst + systemic / pathology gross / …
[24] = systemic / in life observation / body weight / body weight + systemic / in life observation / body weight / body weight gain
[25] = systemic / in life observation / body weight / body weight + systemic / in life observation / body weight / body weight gain + systemic / …
[26] = systemic / in life observation / clinical signs / feces, discoloration
[27] = systemic / organ weight / adrenal gland / absolute + systemic / organ weight / adrenal gland / relative to body weight + systemic / organ …
[28] = group: developmental, developmental / developmental malformation / bone / supernumerary
[29] = group: developmental, developmental / developmental malformation / bone / supernumerary + developmental / developmental malformation / bone / short supernumerary…
[30] = group: maternal, systemic / in life observation / body weight / body weight gain + systemic / in life observation / food consumption / food consumption
[31] = systemic / hematology / mean corpuscular (cell) volume (mcv) / mean corpuscular (cell) volume (mcv) + systemic / hematology / mean …
[32] = systemic / hematology / neutrophils / neutrophils
[33] = systemic / in life observation / mortality / mortality + systemic / pathology microscopic / liver / glycogen deposition + systemic / …
[34] = systemic / pathology microscopic / liver / glycogen deposition
[35] = systemic / in life observation / body weight / body weight
[36] = systemic / in life observation / body weight / body weight + systemic / in life observation / clinical signs / hyperactivity
[37] = systemic / hematology / mean corpuscular hemoglobin (mch) / mean corpuscular hemoglobin (mch)
[38] = group: developmental, developmental / developmental malformation / bone / [other] + developmental / developmental malformation / bone / supernumerary + …
[39] = group: maternal, reproductive / reproductive performance / aborted / aborted + systemic / in life observation / body weight / body weight + systemic / in …
[40] = group: developmental, developmental / developmental malformation / general / [other] + developmental / developmental malformation / limb / micromelia + …
[41] = group: developmental, developmental / developmental malformation / paw / digit / ectrodactyly
[42] = group: maternal, reproductive / reproductive performance / resorptions / resorptions + reproductive / offspring survival early / dead fetuses / dead fetuses
[43] = group: developmental, systemic / in life observation / body weight / fetal weight
[44] = group: maternal, reproductive / offspring survival early / litter size / litter size + systemic / in life observation / body weight / body weight gain + …
[45] = group: maternal, systemic / in life observation / water consumption / water consumption
[46] = group: maternal, reproductive / reproductive performance / resorptions / resorptions + systemic / in life observation / body weight / body weight gain + …

`CC1(C)NC(=O)NC1=O` [5,5-Dimethylhydantoin] showed an LEL [1, 21] of 1020 mg/kg/day, an LOAEL [1, 21] of 1020 mg/kg/day and an NOAEL [1, 21] of 303 mg/kg/day. For the same compound, the NEL ([1]; systemic / organ weight / kidney / absolute + systemic / organ weight / liver / absolute + systemic / organ weight / liver / relative to …) was 303 mg/kg/day, the LEL [2, 22] was 100 mg/kg/day and the NEL [2, 22] was < 100 mg/kg/day. The LOAEL [2, 23] was 1000 mg/kg/day, the NOAEL [2, 23] was 320 mg/kg/day and the LEL [3] was 321 mg/kg/day. The LOAEL [3] was > 1010 mg/kg/day, the NEL [3] was 101 mg/kg/day and the NOAEL [3] was ≥ 1010 mg/kg/day. It also gave an NEL [4, 24] of 300 mg/kg/day, an NOAEL [4, 24] of 300 mg/kg/day and an LEL [4, 25] of 1000 mg/kg/day. For the same compound, the LOAEL [4, 25] was 1000 mg/kg/day, the LEL [5] was 1050 mg/kg/day and the LOAEL [5] was > 1050 mg/kg/day. For the same compound, the NEL [5] was 100 mg/kg/day, the NOAEL [5] was ≥ 1050 mg/kg/day and the LEL [6] was 1000 mg/kg/day. The LOAEL [6] was 1000 mg/kg/day, the NEL [6] was 300 mg/kg/day and the NOAEL [6] was 300 mg/kg/day. For the same compound, the LEL [7, 26] was 120 mg/kg/day, the NEL [7, 26] was < 120 mg/kg/day and the LOAEL [7, 27] was 1510 mg/kg/day. It also gave an NOAEL [7, 27] of 342 mg/kg/day, an LEL [8, 28] of 500 mg/kg/day and an LOAEL [8, 28] of 500 mg/kg/day. For the same compound, the NEL [8, 29] was 100 mg/kg/day, the NOAEL [8, 29] was 100 mg/kg/day and the LEL [8, 30] was 1000 mg/kg/day. It also gave an LOAEL [8, 30] of 1000 mg/kg/day, an NEL [8, 30] of 500 mg/kg/day and an NOAEL [8, 30] of 500 mg/kg/day.

In the case of `ClNc1nc(NCl)nc(NCl)n1` [Trichloromelamine], the LEL [9] is reported as 150 mg/kg/day, the LOAEL [9] is reported as 150 mg/kg/day and the NEL [9] is reported as 30 mg/kg/day. It also gave an NOAEL [9] of 30 mg/kg/day.

`Cn1c(=O)c2[nH]cnc2n(C)c1=O` [Theophylline] showed an LOAEL [10, 31] of 125 mg/kg/day, an NOAEL [10, 31] of 75 mg/kg/day and an LEL [10, 32] of 75 mg/kg/day. The NEL [10, 32] was < 75 mg/kg/day, the LOAEL [11, 24] was 175 mg/kg/day and the NOAEL [11, 24] was < 175 mg/kg/day. For the same compound, the LEL [11, 25] was 175 mg/kg/day, the NEL [11, 25] was < 175 mg/kg/day and the LOAEL [12, 33] was > 300 mg/kg/day. The NOAEL [12, 33] was ≥ 300 mg/kg/day, the LEL [12, 34] was 75 mg/kg/day and the NEL [12, 34] was < 75 mg/kg/day. For the same compound, the LEL [13] was 7.5 mg/kg/day, the LOAEL [13] was 7.5 mg/kg/day and the NEL [13] was < 7.5 mg/kg/day. The NOAEL [13] was < 7.5 mg/kg/day, the LEL [14, 35] was 25 mg/kg/day and the LOAEL [14, 35] was 25 mg/kg/day. For the same compound, the NEL [14, 36] was 7.5 mg/kg/day, the NOAEL [14, 36] was 7.5 mg/kg/day and the LEL [15, 37] was 37.5 mg/kg/day. The NEL [15, 37] was < 37.5 mg/kg/day, the LOAEL ([15]; systemic / pathology microscopic / artery (general) / polyarteritis + systemic / hematology / mean corpuscular (cell) volume (mcv) / mean …) was 150 mg/kg/day and the NOAEL ([15]; systemic / pathology microscopic / artery (general) / polyarteritis + systemic / in life observation / body weight / body weight gain + …) was 75 mg/kg/day. The LEL ([16]; group: developmental, developmental / developmental malformation / bone / [other]) was 30 mg/kg/day, the LOAEL [16, 38] was > 60 mg/kg/day and the NEL [16, 38] was 15 mg/kg/day. For the same compound, the NOAEL [16, 38] was ≥ 60 mg/kg/day, the LOAEL [16, 39] was > 60 mg/kg/day and the NEL [16, 39] was 15 mg/kg/day. For the same compound, the NOAEL [16, 39] was ≥ 60 mg/kg/day, the LEL ([16]; group: maternal, systemic / urinalysis / volume / volume) was 30 mg/kg/day and the LOAEL [17, 40] was > 200 mg/kg/day. The NOAEL [17, 40] was ≥ 200 mg/kg/day, the LEL [17, 41] was 100 mg/kg/day and the NEL [17, 41] was < 100 mg/kg/day. The NEL ([17]; group: maternal, reproductive / reproductive performance / resorptions / resorptions) was 150 mg/kg/day, the LEL [17, 42] was 200 mg/kg/day and the LOAEL [17, 42] was > 200 mg/kg/day. For the same compound, the NOAEL [17, 42] was ≥ 200 mg/kg/day, the LEL [18] was 35 mg/kg/day and the LOAEL [18] was > 70 mg/kg/day. The NEL [18] was 20 mg/kg/day, the NOAEL [18] was ≥ 70 mg/kg/day and the LEL [19, 43] was 218 mg/kg/day. The LOAEL [19, 43] was > 259 mg/kg/day, the NEL [19, 43] was 124 mg/kg/day and the NOAEL [19, 43] was ≥ 259 mg/kg/day. For the same compound, the LOAEL [19, 44] was > 259 mg/kg/day, the NOAEL [19, 44] was ≥ 259 mg/kg/day and the LEL [19, 45] was 124 mg/kg/day. The NEL [19, 45] was < 124 mg/kg/day, the LEL [20, 43] was 372 mg/kg/day and the LOAEL [20, 43] was > 396 mg/kg/day. The NEL [20, 43] was 282 mg/kg/day, the NOAEL [20, 43] was ≥ 396 mg/kg/day and the LEL [20, 46] was 372 mg/kg/day. The LOAEL [20, 46] was > 396 mg/kg/day, the NEL [20, 46] was 282 mg/kg/day and the NOAEL [20, 46] was ≥ 396 mg/kg/day.
